One experiment concerns B16 melanoma tumors. Description: Multivalent ligands modulate B16 melanoma tumor growth in mice. As to conditions: C57BL or CBF1 mice; S.C. injection remote from tumor, 20-30 mg/kg body weight/day for two weeks, started one week after tumor inoculation. Format: in vivo. As to the method: B16 melanoma cells were injected into 7-8 week old female C57BL mice or CBF1 mice, S.C., 2×10^5 cells per mouse, in 0.1 ml volume. One week after the tumor innoculation, the treatment was started by S.C. injection at sites remote from the tumor of the indicated multivalent ligand at a dose 20-30 mg/kg body weight/day for a period of two weeks. Tumors were measured with a dial-caliper and volumes were determined using the formula: (width)^2×length×0.52. Each group (experimental or control) contained 5-6 mice. FIGS. 6-9 depict changes in mean tumor-volume over time.

The test system of experiment [1] is bovine aortic endothelial cells (A19 cells). Description: Proliferation of bovine aortic endothelial cells in vitro (methylene blue staining, O.D. 630 nm). Format: cell-based. As to conditions: increasing concentrations (μg/ml), 72-80 hours incubation, medium with 1 ng/ml basic fibroblast growth factor; relative to untreated cells. As to the method: The experiments were performed using 96 well, flat bottom, tissue culture microtiter plates. Culture medium was prepared from DMEM, penicillin (100 U/ml), streptomycin (100 μg/ml), glutamine (2 mM), 10% endotoxin free bovine calf serum (Hyclone) and 1 ng/ml of basic fibroblast growth factor (any commericial source).
Bovine aortic endothelial cells (referred to herein as "A19 cells") were obtained by procedures disclosed in Gospodorowicz et al., Proc. Natl. Acad. Sci. USA 73:4120 (1976), the entire teachings of which are incorporated herein by reference. An A19 cell suspension at 25×10^3 cells/ml was prepared in the above described culture medium and distributed 0.160 ml/well (about 4000 endothelial cells/well).
Multivalent ligand peptides Tip-18.40 and Tip-19.40 stock solutions was prepared by diluting a 10 mM solution of the HJ peptide in 100% DMSO with phosphate buffered saline (PBS)containing 0.1% BSA. The concentration of HJ peptide in each stock solution was adjusted to nine times the desired concentration of the HJ peptide in the assay mixture. 0.020 ml of each HJ peptide stock solution was added to the corresponding wells about 2 hours after BCE plating, with six replicates for each concentration. […]
The wells were washed one time with borate buffer (0.1 M, pH 8.5). […] After extracting overnight, the O.D. was read at 630 nm to determine the relative number of cells per well. […]

No end group written: not given here.

Turning to “Tip-15.40: four-branch pennant polylysine trimer; four TSP-1/endostatin hybrid peptides of SEQ ID NO.: 4 attached by covalent bond (Ac-AYRWRLSHRPKDLYSIVRRADG; also: four copies on branched polylysine core)”, the “effect on B16 melanoma tumor growth (mean tumor volume over time versus vehicle control)” value in the experiment with B16 melanoma tumors is listed as “weak, but statistically significant inhibition”. On the same count and under the same terms, the result for “Tip-14.40: four-branch pennant polylysine trimer; four TSP-1/endostatin hybrid peptides of SEQ ID NO.: 3 attached by covalent bond (Ac-TFRAFLSSRLQTGFIRVVMYEG; also: four copies on branched polylysine core)” reads “weak, but statistically significant inhibition”. In the case of “Tip-16.40: four-branch pennant polylysine trimer; four hybrid peptides of SEQ ID NO.: 10 attached via -Gly-Gly- linker (Ac-AYRWRLSHRPKDLYSIVRRADR; not fully specified; printed as Ac-AYRWRLSHRPKDLYSIVRRADR; also: four copies on polylysine core via Gly-Gly linker)”, the “effect on B16 melanoma tumor growth (mean tumor volume over time versus vehicle control)” value with B16 melanoma tumors is “suppressed tumor growth”. Still for that read-out and setting: the entry for “Tip-17.40: four-branch pennant polylysine trimer; four hybrid peptides of SEQ ID NO.: 9 attached via -Gly-Gly- linker (Ac-TAYRWRLSHRPKDLYSIVRRADR; not fully specified; printed as Ac-TAYRWRLSHRPKDLYSIVRRADR; also: four copies on polylysine core via Gly-Gly linker)” is “promoted tumor growth”.

For “Tip-18.40: four-branch pennant polylysine trimer; four hybrid peptides of SEQ ID NO.: 11 attached via -Gly-Gly- linker (Ac-RWRLSHRPKDLYSIVRRADR; not fully specified; printed as Ac-RWRLSHRPKDLYSIVRRADR; also: four copies on polylysine core via Gly-Gly linker)”, the “effect on B16 melanoma tumor growth (mean tumor volume over time versus vehicle control)” value in the experiment with B16 melanoma tumors is given as “suppressed tumor growth”. For the same substance, the “effect on proliferation of bovine aortic endothelial cells in vitro” value in experiment [1] is listed as “inhibit the proliferation”. As to “Tip-12.40: four-branch pennant polylysine trimer; four peptides of SEQ ID NO.: 7 (endostatin AHR derivative) attached by covalent bond (Ac-TFRAFLSSRLQDLYSIVRRADG; also: four copies on branched polylysine core)”, the “effect on B16 melanoma tumor growth (mean tumor volume over time versus vehicle control)” value in the experiment on B16 melanoma tumors is reported as “suppressed tumor growth”.

As to “Tip-13.40: four-branch pennant polylysine trimer; four peptides of SEQ ID NO.: 8 (TSP-1 AHR derivative) attached by covalent bond (Ac-AYRWRLSHRPKTGFIRVVMYEG; also: four copies on branched polylysine core)”, the “effect on B16 melanoma tumor growth (mean tumor volume over time versus vehicle control)” value with B16 melanoma tumors is given as “suppressed tumor growth”. Turning to “Tip-19.40: four-branch pennant polylysine trimer; four hybrid peptides of SEQ ID NO.: 12 attached via -Gly-Gly- linker (Ac-KDFTAYRWRLSHRPKDLYSIVRRADR; not fully specified; printed as Ac-KDFTAYRWRLSHRPKDLYSIVRRADR; also: four copies on polylysine core via Gly-Gly linker)”, the “effect on B16 melanoma tumor growth (mean tumor volume over time versus vehicle control)” value in the experiment on B16 melanoma tumors is recorded as “suppressed tumor growth”. The “effect on proliferation of bovine aortic endothelial cells in vitro” value in experiment [1] is listed as “inhibit the proliferation”.

These data come from US6235716A, “Multivalent ligands which modulate angiogenesis” (Children's Medical Center Corporation, priority 1999, dated 2001).
